# From ChEMBL document CHEMBL3046052, “New thiazolidinedione-5-acetic acid amide derivatives: synthesis, characterization and investigation of antimicrobial and cytotoxic properties” (Med Chem Res, 2012)
# Experiments:
# Aspergillus flavus = assay: Antifungal activity against Aspergillus flavus NCIM 524 after 48 hr by NCCLS two-foldserial dilution method; type: functional; details: NCIM 524, 48 h
# Candida albicans = assay: Antifungal activity against Candida albicans ATCC 2091 after 48 hr by NCCLS two-fold serial dilution method; type: functional; details: ATCC 2091, 48 h
# Cryptococcus neoformans = assay: Antifungal activity against Cryptococcus neoformans clinical isolate after 48 hr by NCCLS two-fold serial dilution method; type: functional
# Aspergillus niger = assay: Antifungal activity against Aspergillus niger ATCC 6275 after 48 hr by NCCLS two-fold serial dilution method; type: functional; details: ATCC 6275, 48 h
# Pseudomonas aeruginosa = assay: Antibacterial activity against Pseudomonas aeruginosa ATCC 25619 after 24 hr by NCCLS two-fold serial dilution method; type: functional; details: ATCC 25619, 24 h
# HeLa = assay: Cytotoxicity against Homo sapiens (human) HeLa cells after 24 hr by MTT assay; type: functional, cell-based
# Enterococcus faecalis = assay: Antibacterial activity against Enterococcus faecalis ATCC 35550 after 24 hr by NCCLS two-fold serial dilution method; type: functional; details: ATCC 35550, 24 h
# Escherichia coli = assay: Antibacterial activity against Escherichia coli ATCC 35218 after 24 hr by NCCLS two-fold serial dilution method; type: functional; details: ATCC 35218, 24 h
# Staphylococcus aureus = assay: Antibacterial activity against Staphylococcus aureus ATCC 25923 after 24 hr by NCCLS two fold serial dilution method; type: functional; details: ATCC 25923, 24 h
# HT-29 = assay: Cytotoxicity against Homo sapiens (human) HT-29 cells after 24 hr by MTT assay; type: functional, cell-based; details: HT-29, 24 h
# MCF7 = assay: Cytotoxicity against Homo sapiens (human) MCF7 cells after 24 hr by MTT assay; type: functional, cell-based; details: MCF7, 24 h
# A549 = assay: Cytotoxicity against Homo sapiens (human) A549 cells after 24 hr by MTT assay; type: functional, cell-based; details: A549, 24 h
SMILES,MIC (Aspergillus flavus) [µg/mL],MIC (Candida albicans) [µg/mL],MIC (Cryptococcus neoformans) [µg/mL],MIC (Aspergillus niger) [µg/mL],MIC (Pseudomonas aeruginosa) [µg/mL],IC50 (HeLa) [µM],MIC (Enterococcus faecalis) [µg/mL],MIC (Escherichia coli) [µg/mL],MIC (Staphylococcus aureus) [µg/mL],IC50 (HT-29) [µM],IC50 (MCF7) [µM],IC50 (A549) [µM]
CC(=O)N1CCN(c2ccc(OCC3COC(Cn4ccnc4)(c4ccc(Cl)cc4Cl)O3)cc2)CC1 (centres undefined) [KETOCONAZOLE],1,2,2,2,–,–,–,–,–,–,–,–
Cc1ccc(-c2nnc(NC(=O)CC3SC(=O)NC3=O)s2)cc1 (centres undefined),32,16,32,32,16,50,4,16,8,58,52,46
O=C(CC1SC(=O)NC1=O)Nc1nnc(-c2ccc([N+](=O)[O-])cc2)s1 (centres undefined),32,64,64,64,64,50,32,64,32,60,72,68
O=C(CC1SC(=O)NC1=O)Nc1nnc(-c2ccccc2Cl)s1 (centres undefined),32,16,16,16,32,60,16,32,16,66,84,62
O=C(CC1SC(=O)NC1=O)Nc1nnc(-c2ccc(Cl)cc2)s1 (centres undefined),16,16,16,16,32,62,32,32,4,64,68,60
O=C(CC1SC(=O)NC1=O)Nc1nnc(-c2ccccc2[N+](=O)[O-])s1 (centres undefined),64,64,64,16,64,50,64,64,32,68,78,72
O=C(CC1SC(=O)NC1=O)Nc1nnc(C(F)(F)F)s1 (centres undefined),32,16,16,16,32,42,32,32,32,50,62,60
O=C(CC1SC(=O)NC1=O)Nc1nnc(-c2ccc(Br)cc2)s1 (centres undefined),16,16,16,16,32,52,32,32,8,60,72,68
COc1cc(-c2nnc(NC(=O)CC3SC(=O)NC3=O)s2)cc(OC)c1OC (centres undefined),16,16,32,16,16,33,16,16,16,35,36,30
O=C(CC1SC(=O)NC1=O)Nc1nnc(-c2cccc([N+](=O)[O-])c2)s1 (centres undefined),64,64,64,64,32,68,64,64,32,72,67,78
O=C(CC1SC(=O)NC1=O)Nc1nnc(-c2ccccc2)s1 (centres undefined),64,64,64,64,64,62,64,64,32,78,80,80
COc1cccc(-c2nnc(NC(=O)CC3SC(=O)NC3=O)s2)c1 (centres undefined),16,16,16,32,32,54,8,16,4,56,58,60
O=C(CC1SC(=O)NC1=O)Nc1nnc(-c2ccc(F)cc2)s1 (centres undefined),8,8,8,4,8,50,4,8,4,42,60,50
COc1ccc(-c2nnc(NC(=O)CC3SC(=O)NC3=O)s2)cc1 (centres undefined),32,16,16,16,16,42,4,32,16,44,42,45
COc1ccc(-c2nnc(NC(=O)CC3SC(=O)NC3=O)s2)cc1OC (centres undefined),16,16,16,32,16,40,32,16,16,42,38,35
CC1(C)S[C@@H]2[C@H](NC(=O)[C@H](N)c3ccccc3)C(=O)N2[C@H]1C(=O)O [AMPICILLIN],–,–,–,–,–,–,2,–,2,–,–,–
